# Test results taken from PubChem BioAssay AID651630 (Sanford-Burnham Center for Chemical Genomics, 2012).
# Activity calls are given as the source filed them.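 How the source made its calls: active means lipid-stain IC50 at or below a set limit, with nuclear-stain toxicity IC50 at least five times higher; inactive means the rest.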
# Key:
# [1] = tested on: DAPI; experiment: triacylglycerol accumulation inhibitor potency, dose response, cell-based, panel, Nile Red and DAPI fluorescence, H9c2 (AID 651630); details: H9c2 cells, DAPI nuclear fluorescence (cytotoxicity counter-readout), oleic acid;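 further: cells exposed to compound overnight before fixation and staining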
# [2] = tested on: TAG; experiment: as above; details: H9c2 cells, Nile Red TAG fluorescence, oleic acid
IC50 ([2]; mean of runs),IC50 ([2]; run 1) [µM],IC50 ([2]; run 2) [µM],SMILES,IC50 cytotoxicity (DAPI nuclear signal decrease) ([1]; run 1) [µM],IC50 cytotoxicity (DAPI nuclear signal decrease) ([1]; run 2) [µM],IC50 cytotoxicity (DAPI nuclear signal decrease) ([1]; mean of runs)
> 25 µM (inactive),> 25,> 25,COc1ccc(C[C@H]2CN3C(=NC[C@@H]3Cc3ccc(O)cc3)N2CCNC(=O)c2ccc(C)c(Br)c2)cc1,24,> 25,
4.43 µM,3.68,5.18,Cc1ccc(CNC(=O)c2ccc(N3CCC4(CC3)CC(c3ccccc3)=NO4)c(NC(=O)c3ccc(Br)cc3)c2)cc1,> 25,> 25,
,> 25,17.7,CCC(C)NCCOCCOc1ccc(Cl)c2ccccc12 (configuration not stated),> 25,> 25,> 25 µM (inactive)
16.9 µM (inactive),16.2,17.7,COc1ccc(C(=O)Nc2ccc(Cl)cc2C(=O)NCc2ccco2)cc1,> 25,> 25,> 25 µM (inactive)
> 25 µM (inactive),> 25,> 25,COc1cc(-c2nc3c(c(C)nn3-c3ccccc3)c3cc(OC)c(OC)cc23)ccc1O,> 25,> 25,> 25 µM (inactive)
> 25 µM (inactive),> 25,> 25,CC1(C(=O)NCc2cccs2)Cc2c(-c3ccc4c(c3)OCO4)ccnc2O1 (configuration not stated),> 25,> 25,> 25 µM (inactive)
20.5 µM (inactive),19.4,21.5,CC(C)CN(C#N)c1nc(N2CCOCC2)nc(N2CCOCC2)n1,> 25,> 25,> 25 µM (inactive)
,20.9,> 25,CN(Cc1ccccc1)C(=O)c1ccc(Nc2nc(C(N)Cc3ccccc3)cs2)nc1 (configuration not stated),> 25,> 25,> 25 µM (inactive)
> 25 µM (inactive),> 25,> 25,CC(C)C[C@H]1CNC(=S)N1CC1CCCN1C[C@H](CC(C)C)N1C[C@H](CC(C)C)N(CC2CCCCCC2)C1=S (some centres not stated),> 25,> 25,> 25 µM (inactive)
7.1 µM,7.74,6.45,O=C(CSc1nc2ccc(Nc3nc(N4CCOCC4)nc(N4CCOCC4)n3)cc2s1)NCc1ccco1,> 25,> 25,> 25 µM (inactive)
5.75 µM,7.67,3.82,CCOc1ccc(CCNC(=O)c2cc3sc(Cl)cc3n2C)cc1OCC,> 25,> 25,> 25 µM (inactive)
10.3 µM,9.38,11.2,Cn1cc(CN2CCC(C(=O)NC(c3ccc(F)cc3)c3ccc4ccccc4n3)CC2)c2ccccc21 (configuration not stated),14.5,13,13.7 µM (inactive)
11.8 µM,12.6,11.1,NC(N)=Nc1ccc(C=C2C=Cc3ccccc32)cc1,21.2,24.5,22.8 µM (inactive)
> 25 µM (inactive),> 25,> 25,CCC1=Nc2cc(C(=O)NCCCOC)ccc2Sc2ccccc21,> 25,> 25,> 25 µM (inactive)
13.5 µM,13.9,13.2,Cn1nnc2c[n+](CC(=O)c3ccc(Cl)cc3)cc(Br)c21,20.9,22.1,21.5 µM (inactive)
13.9 µM,12.7,15.1,CCN1CCN(Cc2ccc(NC(=O)c3cc(NC(=O)c4cc5cccc(OC)c5o4)cc(OC)c3)cc2C(F)(F)F)CC1,> 25,> 25,> 25 µM (inactive)
> 25 µM (inactive),> 25,> 25,CCCCOc1ccccc1NC(=O)Cn1c(-c2nonc2N)nc2ccccc21,> 25,> 25,> 25 µM (inactive)

IC50 ([2]; mean of runs),IC50 ([2]; run 1) [µM],IC50 ([2]; run 2) [µM],SMILES,IC50 cytotoxicity (DAPI nuclear signal decrease) ([1]; run 1) [µM],IC50 cytotoxicity (DAPI nuclear signal decrease) ([1]; run 2) [µM],IC50 cytotoxicity (DAPI nuclear signal decrease) ([1]; mean of runs)
,> 25,11.2,Cc1cc(NC(=O)CC2CCCC2)n(-c2nc3ccccc3[nH]2)n1,> 25,> 25,> 25 µM (inactive)
13.3 µM,13.1,13.5,COC(=O)c1c(NC(NC(=O)C(C)(C)C)C(Cl)(Cl)Cl)sc2c1CCC2 (configuration not stated),> 25,> 25,> 25 µM (inactive)
> 25 µM (inactive),> 25,> 25,COC(=O)C1=C(C)N(Cc2ccccc2)C(=NCc2ccccc2)N[C@H]1c1ccccc1,> 25,18.2,
> 25 µM (inactive),> 25,> 25,CS(=O)(=O)c1ccc(C(=O)OCC(=O)N2CCOCC2)cc1[N+](=O)[O-],> 25,> 25,> 25 µM (inactive)
4.93 µM,4.53,5.33,C#CCN(C[C@H]1[C@H](OC(=O)NCC2CCCCC2)[C@H](OC(=O)NCC2CCCCC2)C[C@@H](C(=O)OC)[C@H]1C(=O)OC)S(=O)(=O)c1ccc(C)cc1,> 25,> 25,
10.1 µM,6.4,13.8,COc1ccc(C2c3cc4c(cc3OC(N3CCOCC3)C2C)OCO4)c(OC)c1 (configuration not stated),> 25,> 25,> 25 µM (inactive)
> 25 µM (inactive),> 25,> 25,CCN(CC(=O)Nc1ccc(C(=O)Nc2ccc(OC)cc2)cc1)Cc1nc2ccccc2c(=O)[nH]1,> 25,> 25,> 25 µM (inactive)
5.44 µM,4.6,6.28,COc1cc(-c2cnc3c(NC=O)cc(-c4cccc(NC(C)=O)c4)cn23)cc(OC)c1OC,> 25,> 25,> 25 µM (inactive)
> 25 µM (inactive),> 25,> 25,COc1ccc(C2NCCc3c2[nH]c2ccccc32)cc1CSc1nc2ccccc2s1 (configuration not stated),> 25,24.6,
> 25 µM (inactive),> 25,> 25,O=C(c1ccoc1)N1CCN(c2cc(-c3cccc(F)c3)nc3cc(-c4cccc(Cl)c4)nn23)CC1,> 25,> 25,> 25 µM (inactive)
18.7 µM (inactive),19.5,17.9,Cc1ccc2c(c1)N(C(=O)CCC(=O)NCCCN1CCC(Cc3ccccc3)CC1)CCO2,20.2,24.3,22.3 µM (inactive)
,22.3,> 25,Cc1ccc(N2C(=O)C3CC(c4ccccc4)=C4C5C=CC(C6C(=O)N(c7ccc(C)cc7C)C(=O)C56)C4C3C2=O)c(C)c1 (configuration not stated),> 25,> 25,> 25 µM (inactive)
3.65 µM,3.15,4.14,c1ccc(-c2csc(NNC3=NCCCCC3)n2)cc1,> 25,> 25,
,> 25,13.7,COc1cc(OC)c2c(-c3ccccc3)cc(=O)oc2c1C(CCN1CCCC(C)C1)c1ccc2c(c1)OCO2 (configuration not stated),> 25,> 25,> 25 µM (inactive)
11.4 µM,11.2,11.6,CCO[C@@H]1OC(C(=O)N2CCN(Cc3ccccc3)CC2)=C[C@H](c2ccc(C(F)(F)F)cc2)[C@H]1CCCO,> 25,> 25,> 25 µM (inactive)
,> 25,13.9,COC(=O)Nc1nc2ccc(SC(C)C)cc2[nH]1,> 25,> 25,> 25 µM (inactive)
> 25 µM (inactive),> 25,> 25,CN(C)c1ncnc2c1ncn2C1OC(CO)C(O)C1O (configuration not stated),11,14.5,12.8 µM (inactive)
